According to patent US10385065B2, “Antibacterial compounds” (priority 2014, dated 2019):
≈ marks a conversion by molar mass, not a printed value. Where two headings read alike, the source gives them in different places.

Key:
Assay type in all cases: cell-based
[1] = test system: human hepatic cell line (HepG2 ATCC HB-8065); test: Human cell viability assay (CellTiter-Glo), HepG2; settings: HepG2, 24 h incubation, tested over 1-128 μg/mL, read-out: IC50 values against HepG2
Procedure: Compounds are assessed for potential non-specific cytotoxic effects against a human hepatic cell line (HepG2 ATCC HB-8065). HepG2 cells are seeded at 20,000 cells/well in 96-well microtitre plates in minimal essential medium (MEM) supplemented with a final concentration of 10% FBS and 1 mM sodium pyruvate. After 24 h compound dilutions are prepared in Dulbecco's minimum essential media (DMEM) supplemented with final concentrations of 0.001% FBS, 0.3% bovine albumin and 0.02% HEPES and added to cells. Compounds are tested in two-fold serial dilutions over a final concentration range of 1-128 μg/mL in a final DMSO concentration of 1% vol/vol. Chlorpromazine is used as a positive control. Cells are incubated with compound at 37° C. and 5% CO2 for a further 24 h, after which time the CellTiter-Glo reagent (Promega) is added. Luminescence is measured on a BMG Omega plate reader. Data are analysed using GraphPad Prism software to determine the concentration of compound that inhibits cell viability by fifty percent (IC50).

[2] = test system: Haemophilus influenzae ATCC 49247; test: MIC, H. influenzae ATCC 49247; settings: ATCC49247, Table 4
[3] = test system: Escherichia coli ATCC 25922; test: MIC, broth microdilution, E. coli ATCC 25922; settings: ATCC25922, Table 1, wild type strain
[4] = test system: Staphylococcus aureus ATCC 29213; test: MIC, broth microdilution, S. aureus ATCC 29213
[5] = test system: Enterococcus faecium ATCC 19434; test: MIC, E. faecium ATCC 19434; settings: ATCC19434, Table 2
[6] = test system: S. aureus NRS482 MRSA FQ resistant; test: MIC, S. aureus NRS482; settings: Staphylococcus aureus; Table 2
[7] = ATCC29213, Table 1, wild type strain, read-out: MIC S. aureus ATCC 29213
[8] = ATCC 29213 / MSSA, Table 2, read-out: MIC S. aureus (MSSA) ATCC 29213 CLSI control strain

| SMILES | IC50 [1] [µg/mL] | MIC [2] [µg/mL] | MIC [3] [µg/mL] | MIC [4, 7] [µg/mL] | MIC [4, 8] [µg/mL] | MIC [5] [µg/mL] | MIC [6] [µg/mL] |
| --- | --- | --- | --- | --- | --- | --- | --- |
| Cc1nc2c(=O)n(C3CC3)c3c(C)c(-c4cn[nH]c4)ccc3c2o1 [Compound 29, 5-cyclopropyl-2,6-dimethyl-7-(1H-pyrazol-4-yl)oxazolo[4,5-c]quinolin-4-one] | > 100 | 1 to 10 (≈ 3.12 to 31.2 µM) | 10 to 100 (≈ 31.2 to 312 µM) | 1 to 10 (≈ 3.12 to 31.2 µM) | 1 to 10 (≈ 3.12 to 31.2 µM) | > 100 | – |
| Cc1c(-c2ccc(C(=O)NCC(=O)O)cc2)ccc2c3ocnc3c(=O)n(C3CC3)c12 [Compound 31, 2-[{4-(5-cyclopropyl-6-methyl-4-oxo-oxazolo[4,5-c]quinolin-7-yl)benzoyl}amino]acetic acid] | – | > 100 | > 100 | > 100 | > 100 | – | > 100 |
| Cc1nc2c(=O)n(C3CC3)c3c(C)c(-c4ccc(C#N)cc4F)ccc3c2o1 [Compound 33, 4-(5-cyclopropyl-2,6-dimethyl-4-oxo-oxazolo[4,5-c]quinolin-7-yl)-3-fluoro-benzonitrile] | 10 to 100 (≈ 26.8 to 268 µM) | 10 to 100 (≈ 26.8 to 268 µM) | > 100 | < 1 | < 1 | > 100 | – |
| Cc1nc2c(=O)n(C3CC3)c3c(C)c(-c4cc(F)c(CO)cc4F)ccc3c2o1 [Compound 34, 5-cyclopropyl-7-[2,5-difluoro-4-(hydroxymethyl)phenyl]-2,6-dimethyl-oxazolo[4,5-c]quinolin-4-one] | > 100 | 1 to 10 (≈ 2.52 to 25.2 µM) | 1 to 10 (≈ 2.52 to 25.2 µM) | < 1 | < 1 | > 100 | – |
| Cc1c(-c2ccc(N)cc2)ccc2c3ocnc3c(=O)n(C3CC3)c12 [Compound 40, 7-(4-aminophenyl)-5-cyclopropyl-6-methyl-oxazolo[4,5-c]quinolin-4-one] | > 100 | 1 to 10 (≈ 3.02 to 30.2 µM) | 1 to 10 (≈ 3.02 to 30.2 µM) | < 1 | < 1 | > 100 | – |
| Cc1c(-c2cnc(N(C)C)nc2)ccc2c3ocnc3c(=O)n(C3CC3)c12 [Compound 41, 5-cyclopropyl-7-[2-(dimethylamino)pyrimidin-5-yl]-6-methyl-oxazolo[4,5-c]quinolin-4-one] | 10 to 100 (≈ 27.7 to 277 µM) | 10 to 100 (≈ 27.7 to 277 µM) | > 100 | 1 to 10 (≈ 2.77 to 27.7 µM) | 1 to 10 (≈ 2.77 to 27.7 µM) | > 100 | – |
| Cc1c(-c2ccc3nonc3c2)ccc2c3ocnc3c(=O)n(C3CC3)c12 [Compound 46, 7-(2,1,3-benzoxadiazol-5-yl)-5-cyclopropyl-6-methyl-oxazolo[4,5-c]quinolin-4-one] | 10 to 100 (≈ 27.9 to 279 µM) | > 100 | 1 to 10 (≈ 2.79 to 27.9 µM) | < 1 | < 1 | > 100 | – |
| Cc1c(-c2ccc(NCc3ccccc3)nc2)ccc2c3ocnc3c(=O)n(C3CC3)c12 [Compound 48, 7-[6-(benzylamino)pyridin-3-yl]-5-cyclopropyl-6-methyl-oxazolo[4,5-c]quinolin-4-one] | 10 to 100 (≈ 23.7 to 237 µM) | 1 to 10 (≈ 2.37 to 23.7 µM) | 10 to 100 (≈ 23.7 to 237 µM) | 1 to 10 (≈ 2.37 to 23.7 µM) | 1 to 10 (≈ 2.37 to 23.7 µM) | > 100 | – |
| Cc1nc2c(=O)n(C3CC3)c3cc(N4CC[C@@H](C(C)(C)N)C4)c(F)cc3c2o1 [Compound 50, 7-[(3R)-3-(2-aminopropan-2-yl)pyrrolidin-1-yl]-5-cyclopropyl-8-fluoro-2-methyl-oxazolo[4,5-c]quinolin-4-one] | 10 to 100 (≈ 26 to 260 µM) | 10 to 100 (≈ 26 to 260 µM) | 1 to 10 (≈ 2.6 to 26 µM) | 1 to 10 (≈ 2.6 to 26 µM) | 1 to 10 (≈ 2.6 to 26 µM) | > 100 | – |
| Cc1nc2c(=O)n(C3CC3)c3cc(N4CCC(C)(N)CC4)c(F)cc3c2o1 [Compound 55, 7-(4-amino-4-methylpiperidin-1-yl)-5-cyclopropyl-8-fluoro-2-methyl-oxazolo[4,5-c]quinolin-4-one] | > 100 | 1 to 10 (≈ 2.7 to 27 µM) | 10 to 100 (≈ 27 to 270 µM) | 1 to 10 (≈ 2.7 to 27 µM) | 1 to 10 (≈ 2.7 to 27 µM) | > 100 | – |
| Cc1nc2c(=O)n(C3CC3)c3cc(N4CCC(N)C4)c(F)cc3c2o1 (centres unmarked) [Compound 56, 7-(3-aminopyrrolidin-1-yl)-5-cyclopropyl-8-fluoro-2-methyl-oxazolo[4,5-c]quinolin-4-one] | 10 to 100 (≈ 29.2 to 292 µM) | 1 to 10 (≈ 2.92 to 29.2 µM) | 1 to 10 (≈ 2.92 to 29.2 µM) | 1 to 10 (≈ 2.92 to 29.2 µM) | 1 to 10 (≈ 2.92 to 29.2 µM) | 10 to 100 (≈ 29.2 to 292 µM) | – |
| NC(=O)c1ccc(-c2cc3c(cc2F)c2ocnc2c(=O)n3C2CC2)cc1 [Compound 58, 4-(5-cyclopropyl-8-fluoro-4-oxo-oxazolo[4,5-c]quinolin-7-yl)benzamide] | 10 to 100 (≈ 27.5 to 275 µM) | 1 to 10 (≈ 2.75 to 27.5 µM) | 10 to 100 (≈ 27.5 to 275 µM) | 1 to 10 (≈ 2.75 to 27.5 µM) | 1 to 10 (≈ 2.75 to 27.5 µM) | > 100 | – |
| O=c1c2ncoc2c2cc(F)c(-c3ccc(O)cc3)cc2n1C1CC1 [Compound 64, 5-cyclopropyl-8-fluoro-7-(4-hydroxyphenyl)oxazolo[4,5-c]quinolin-4-one] | 10 to 100 (≈ 29.7 to 297 µM) | < 1 | 10 to 100 (≈ 29.7 to 297 µM) | < 1 | < 1 | > 100 | – |
| Nc1ccc(-c2cc3c(cc2F)c2ocnc2c(=O)n3C2CC2)cc1F [Compound 71, 7-(4-amino-3-fluoro-phenyl)-5-cyclopropyl-8-fluoro-oxazolo[4,5-c]quinolin-4-one] | > 100 | < 1 | 1 to 10 (≈ 2.83 to 28.3 µM) | 1 to 10 (≈ 2.83 to 28.3 µM) | 1 to 10 (≈ 2.83 to 28.3 µM) | 10 to 100 (≈ 28.3 to 283 µM) | – |
| Cc1nc2c(=O)n(C3CC3)c3cc(-c4cc(F)c(N)cc4F)c(F)cc3c2o1 [Compound 79, 7-(4-amino-2,5-difluoro-phenyl)-5-cyclopropyl-8-fluoro-2-methyl-oxazolo[4,5-c]quinolin-4-one] | 10 to 100 (≈ 26 to 260 µM) | < 1 | 10 to 100 (≈ 26 to 260 µM) | < 1 | < 1 | > 100 | – |
| NCC1CCN(c2nc3c(cc2F)c2ocnc2c(=O)n3C2CC2)C1 (centres unmarked) [Compound 81, 7-[3-(aminomethyl)pyrrolidin-1-yl]-5-cyclopropyl-8-fluoro-oxazolo[4,5-c][1,8]naphthyridin-4-one] | > 100 | 1 to 10 (≈ 2.91 to 29.1 µM) | 1 to 10 (≈ 2.91 to 29.1 µM) | 1 to 10 (≈ 2.91 to 29.1 µM) | 1 to 10 (≈ 2.91 to 29.1 µM) | > 100 | – |
| CC(=O)OCc1nc2c(=O)n(C3CC3)c3c(C)c(-c4cc(F)c(N)cc4F)ccc3c2o1 [Compound 98, [7-(4-amino-2,5-difluorophenyl)-5-cyclopropyl-6-methyl-4-oxo-4H,5H-[1,3]oxazolo[4,5-c]quinolin-2-yl]methyl acetate] | > 100 | 1 to 10 | 1 to 10 | < 1 | < 1 | – | < 1 |
| Cc1c(-c2cc(F)c(N)cc2F)ccc2c3oc(CN(C)C)nc3c(=O)n(C3CC3)c12 [Compound 101, 7-(4-amino-2,5-difluoro-phenyl)-5-cyclopropyl-2-[(dimethylamino)methyl]-6-methyl-oxazolo[4,5-c]quinolin-4-one] | 10 to 100 (≈ 23.6 to 236 µM) | 1 to 10 (≈ 2.36 to 23.6 µM) | 10 to 100 (≈ 23.6 to 236 µM) | < 1 | < 1 | – | 1 to 10 (≈ 2.36 to 23.6 µM) |
